Patent US20040067565A1, “Selective functionalization of hydrocarbons with isolated oxygenases and mediator based regeneration” (priority 2002, published 2004)
Where two headings read alike, the source gives them in different places. Marks after values point to notes of the source that are not given here.

What was measured:
[1] = biological target: T1, Alkane Hydoxylase from P. Oleovorans (AlkB) (Ectopseudomonas oleovorans, UniProt P12691); test: Direct reduction of alkane hydroxylase AlkB by [Cp*Rh(bpy)(H2O)]2+, hydroxylation of 3-ethyl toluene; format: biochemical; conditions: 200 μM [Cp*Rh(bpy)(H2O)]2+, 2 mM 3-ethyl toluene, AlkB crude extract, 30 °C, 20 minutes; average of 4 experiments
T1 construct: made in house; host or cells: E. coli
T1 sequence (P12691 whole entry): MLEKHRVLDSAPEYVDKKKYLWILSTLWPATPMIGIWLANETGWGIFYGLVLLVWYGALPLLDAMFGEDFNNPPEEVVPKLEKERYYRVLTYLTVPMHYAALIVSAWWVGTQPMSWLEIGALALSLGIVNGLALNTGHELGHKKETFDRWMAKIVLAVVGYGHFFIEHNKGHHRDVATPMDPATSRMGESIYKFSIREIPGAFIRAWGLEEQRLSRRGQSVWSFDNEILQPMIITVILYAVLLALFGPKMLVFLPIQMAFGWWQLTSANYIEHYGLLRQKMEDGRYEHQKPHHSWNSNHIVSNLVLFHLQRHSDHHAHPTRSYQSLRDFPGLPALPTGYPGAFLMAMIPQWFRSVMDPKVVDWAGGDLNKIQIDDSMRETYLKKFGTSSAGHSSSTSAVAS
Protocol: In a typical experiment, 1 ml total volume of 200 μM [Cp*Rh(bpy)(H2O)]^2+ are incubated with 2 mM 3-ethyl toluene and 100 μl of a cell crude extract of recombinant E. coli overexpressing AlkB in a final volume of 1 ml 100 mM potassium phosphate buffer (pH 7.4) supplemented with 150 mM sodium formate and 1 mg/ml bovine serum albumin at 30° C. and vigorous shaking. After 20 minutes the reaction is stopped by addition of […] perchloric acid (10%). After centrifugation the supernatant is extracted with one aliquot of hexane. The organic phase is analyzed by normal phase HPLC (Nucleosil 250/3 100-5 C, mobile phase: hexane/isopropanol 95:5, flow rate=0.5 ml min^−1).

[2] = biological target: T2, monooxygenase component of styrene monooxygenase (StyA) (Pseudomonas sp, UniProt O50214); test: [Cp*Rh(bpy)(H2O)]2+ driven, StyA-catalyzed epoxidation / sulfoxidation; format: biochemical; conditions: substrate 2 mM, reaction time 15 min, 37 °C, 0.2 mM [Cp*Rh(bpy)(H2O)]2+, 1.47 μM StyA; for Epoxides concentration: 20 μM FAD, Positive = no standard substances available yet
T2 sequence (O50214 whole entry): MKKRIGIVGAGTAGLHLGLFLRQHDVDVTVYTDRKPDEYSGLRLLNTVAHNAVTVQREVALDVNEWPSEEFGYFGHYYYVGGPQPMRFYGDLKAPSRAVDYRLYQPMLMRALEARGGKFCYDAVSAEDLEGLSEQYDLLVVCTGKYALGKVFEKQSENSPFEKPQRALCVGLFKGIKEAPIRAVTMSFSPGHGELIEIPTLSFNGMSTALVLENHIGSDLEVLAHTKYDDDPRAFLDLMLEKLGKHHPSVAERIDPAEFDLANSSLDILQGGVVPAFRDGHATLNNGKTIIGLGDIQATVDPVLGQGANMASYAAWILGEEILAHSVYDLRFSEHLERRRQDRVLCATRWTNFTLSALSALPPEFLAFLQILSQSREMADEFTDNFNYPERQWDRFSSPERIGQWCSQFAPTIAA
Protocol: In a typical experimental setup 1 ml total volume was placed in an Eppendorf cup in a Thermomixer. The temperature was set to 37° C. and the reaction mixture was shaken thoroughly to ensure O2 intake.
Product formation was followed by reversed phase HPLC. The HPLC system (Merck) consisted of a D-7000 controller, L-7200 autosampler, L-7400 UV detector, L-7100 liquid chromatography pump and was fitted with a CC250/4 Nucleosil 100-5 C18 HD column. Samples were eluted under isocratic conditions using 60% acetonitrile and 40% water at a flow rate of 1 ml×min^−1. The elution pattern was monitored at 210 nm.
0.2 mM [Cp*Rh(bpy)(H2O)]^2+, 0.05 mM FAD, 0.005 mM FMN, 2 mM styrene, 280 U catalase, and 1.16 μM StyA in 50 mM potassium phosphate buffer with 150 mM sodium formate were incubated at 37° C. and agitation at 1500 rpm. At intervals, reactions were stopped by addition of one equivalent volume of cold acetonitrile. After centrifugation (15 min at 4° C. and 23000×g the upper phase was analyzed by reverse phase HPLC. Concentrations were corrected according to the phase ratio after centrifugation. Results from this experiment are given in FIG. 10 and Table 3.
0.2 mM [Cp*Rh(bpy)(H2O)]^2+, 0.02 mM FAD, 2 mM substrate, 200 U catalase, and 1.47 μM StyA in 50 mM potassium phosphate buffer with 150 mM sodium formate were incubated at 37° C. and agitation at 1500 rpm.
Styrene oxide was analyzed using a CC200/4 Nucleodex α-PM (Machery-Nagel). As eluent 60% methanol and 40% 6.2 mM TEAA in water was used at a flow rate of 0.7 ml×min^−1. 1,2-Dihydronaphthalene oxide, trans-β-Methylstyrene oxide, indene oxide, and methyl phenyl sulfoxide were extracted from the reaction buffer with one aliquot hexane und analyzed unsing normal phase HPLC with a CHIRACEL OB—H column and hexane:isopropanol 95:5 (9:1 for methyl phenyl sulfoxide) at a flow rate of 0.5 ml*min^−1 as mobile phase. As reference either authentical samples of racemic epoxides were used. (Table 4). […]

[3] = biological target: CytC (Equus caballus, UniProt P00004)
CytC, sequence (P00004 whole entry): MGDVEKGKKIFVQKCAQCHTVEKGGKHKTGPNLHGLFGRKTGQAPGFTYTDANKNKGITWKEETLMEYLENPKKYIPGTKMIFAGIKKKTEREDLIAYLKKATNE
Protocol: On the other hand CytC is inactivated by hydrogen peroxide, which can be followed by the disappearing Soret-peak (heme absorbance at k=408 nm).
In a typical experiment […] CytC is incubated at 30° C. in the presence of 1 mM hydrogen peroxide. At intervals of 2 min the UV-spectrum (between 300 and 650 nm) is recorded (FIG. 18).
In identical experiments, the absorbance at 408 nm was followed over time.

[4] = biological target: T2, monooxygenase component of styrene monooxygenase (StyA); test: [Cp*Rh(bpy)(H2O)]2+ driven, StyA-catalyzed epoxidation / sulfoxidation; format: biochemical; conditions: substrate 4 mM, reaction time 15 min, 37 °C, 0.2 mM [Cp*Rh(bpy)(H2O)]2+, 1.47 μM StyA

## Cc1cccc(CCO)c1 [3-methylphenethylalcohol]
[1]
  3-methylphenethylalcohol produced: about 0.015 mM

## C=Cc1cccc(Cl)c1 [3-Chloro-styrene]
[2]
  Epoxides concentration: 0.37 mM

## C=Cc1ccc(Br)cc1 [4-Bromo styrene]
[2]
  Epoxides concentration: Positive^[c]

## OO [H2O2, hydrogen peroxide]
[3]; CytC 15 μM, 1 mM hydrogen peroxide, 10 minutes
  CytC enzymatic activity after preincubation (sulfoxidation of thioanisol): almost complete loss of enzymatic activity
[3]; [CytC] 5 μM, [H2O2] 5 mM
  dE (408 nm)/dt: -0.0116 min⁻¹
[3]; [CytC] 5 μM, [H2O2] 10 mM
  dE (408 nm)/dt: -0.0231 min⁻¹
[3]; [CytC] 5 μM, [H2O2] 20 mM
  dE (408 nm)/dt: -0.0399 min⁻¹
[3]; [CytC] 7.5 μM, [H2O2] 10 mM
  dE (408 nm)/dt: -0.0281 min⁻¹
[3]; [CytC] 10 μM, [H2O2] 5 mM
  dE (408 nm)/dt: -0.0234 min⁻¹
[3]; [CytC] 10 μM, [H2O2] 7.5 mM
  dE (408 nm)/dt: -0.0330 min⁻¹
[3]; [CytC] 10 μM, [H2O2] 10 mM
  dE (408 nm)/dt: -0.0438 min⁻¹
[3]; [CytC] 10 μM, [H2O2] 15 mM
  dE (408 nm)/dt: -0.0637 min⁻¹
[3]; [CytC] 10 μM, [H2O2] 20 mM
  dE (408 nm)/dt: -0.0821 min⁻¹

## C=Cc1ccc(F)cc1 [4-Fluoro styrene]
[2]
  Epoxides concentration: Positive^[c]

## C=Cc1ccccc1 [Styrene]
[4]; 20 μM FAD
  Epoxides concentration: 0.33 mM
[4]; (S)
  ee-value of the epoxides: <98 (S)^[a] %

## C1=Cc2ccccc2CC1 [1,2-Dihydronaphthalene]
[2]
  ee-value of the epoxides: 98.9%
  Epoxides concentration: 0.23 mM

## C=Cc1ccc(OC)cc1 [4-Methoxy styrene]
[2]
  Epoxides concentration: Positive^[c]

## C1=Cc2ccccc2C1 [Indene]
[2]
  ee-value of the epoxides: 97.9%
  Epoxides concentration: 0.42 mM

## C=Cc1ccc(C)cc1 [4-Methyl-styrene]
[2]
  Epoxides concentration: 0.29 mM

## C/C=C/c1ccccc1 [Trans-β-Methylstyrene]
[2]
  ee-value of the epoxides: 97.6%
  Epoxides concentration: 0.28 mM

## CCSc1ccccc1 [Phenyl ethyl sulfide]
[2]
  Epoxides concentration: Positive^[c]

## C=Cc1ccc(Cl)cc1 [4-Chloro styrene]
[2]
  Epoxides concentration: Positive^[c]

## CSc1ccccc1 [Thioanisole]
[2]
  ee-value of the epoxides: 23.3%
  Epoxides concentration: 0.33 (Methyl mM
